Test results taken from EP0381959B1, “Cyclohexaneacetamide derivatives” (F. HOFFMANN-LA ROCHE AG, priority 1989, dated 1990).

Tested on: male C57Bl/10 mice
Assay: Morris water maze task (latency to locate hidden platform)
Type: in vivo
Conditions: Dose-Response (IP), intraperitoneal, dissolved in saline, 30 minutes prior to testing
Description: The test animals were male C57Bl/10 mice, weighing 17-21 grams at the time of testing. Mice were housed in groups of 10 and had ad lib access to food and water. Mice of this strain appear to be deficient in learning the water maze task and are therefore suitable for use in drug evaluation.[Symons, J.P., Davis, R.E., and Marriott J.G. Life Sciences, 1988, 42, 375-383.] The Morris water maze task requires an animal to attend to spatial cues in order to locate the position of a hidden platform submerged underwater. [Morris, B. G. Learning and Motivation , 1981, 12, 239-260, and Symons, J.P., Davis, R.E., and Marriott J.G. Life Sciences, 1988, 42, 375-383.] The maze consisted of a 60 cm x 60 cm x 60 cm transparent plexiglas chamber filled to a depth of 30 cm, leaving 30 cm of wall extended up from the water surface. The water was made opaque by the addition of powdered milk. The water temperature was maintained at 20 °C. Both distal cues (i.e., standard room objects) and proximal cues (that is, 20 cm x 22 cm unique black and white patterns pasted to the center of each of the four walls of the maze) were used. The submerged platform, 8 x 8 cm, 1 cm below the water's surface was positioned near one of the four corners of the maze. […] The time required for each animal to locate the platform on each of the four trials was recorded (latency). […]

SMILES: NC(=O)[C@@H]1CCCN1C(=O)[C@H](Cc1c[nH]cn1)NC(=O)[C@@H]1CCC(=O)N1 [TRH, pGlu-His-ProNH₂]
- Active Dose Range: 0.1 to 0.3 mg/kg
